One assay concerns IL-1. Briefly: IL-1 release/production after stimulation (FIG. 1, FIG. 3). The note with it: FIG. 1.
The test system of assay [1] is monosodium urate crystal-induced inflammatory response. Briefly: rat air pouch model of crystal-induced arthropathy. Type of assay: in vivo, Sprague-Dawley rats. The note with it: PO 10, 30, 100 mg/kg; 150 mg MSU; FIGS. 4 and 5. On the procedure: • 1. […] NaOH was added as required to maintain pH between 8-9. The solution was filtered and incubated at ambient with slow stirring continuously for 24 hours. • b. Crystals were washed, dried and sterilized by autoclaving. • c. Crystals were suspended in sterile saline at 0.67 mg/ml, 2.67 mg/ml and 10 mg/ml just prior to use. • 2. 110 Sprague-Dawley rats (male, 160-180 g) were obtained. Following quarantine, rats were accepted for the Study if no signs of clinical distress were noted during the 3-day quarantine period. The rats were maintained on certified laboratory diet and water ad libitum. • 3. The rats were ear-notched for individual identification. • 4. The rat weights were recorded. • 5. […] Exudates volume was measured and recorded for each animal. • a. […] Plasma extravasation was measured by optical absorbance at 620 nm for each exudate sample. • 14. […] Mean cell counts and standard deviations were determined for each group. • b. Mean optical absorbance measurements and standard deviations were determined for each group. • c. Group means and standard deviations for TNF-alpha and IL-1 were determined for each group. • d. Statistical significance of treatments on mean cell counts, mean optical absorbance measurements and mean cytokine measurements were determined by comparison of means for treatment and positive control groups with vehicle group.

Consider `O=C([O-])CSc1nnc(Br)n1-c1ccc(C2CC2)c2ccccc12.[Na+]` [compound 1, 2-(5-Bromo-4-(4-cyclopropylnaphthalen-1-yl)-4H-1,2,4-triazol-3-ylthio)acetate sodium salt], for which the “blocks IL-1 release, time after stimulation” value in the assay with IL-1 is at most 1 h. In addition, the “monosodium urate crystal-induced inflammatory response” value in assay [1] is given as “blocked”.
